The text below walks through data of patent publication US20110027771A1, “METHODS AND COMPOSITIONS FOR CELL STABILIZATION” (Artemis Health, Inc., priority 2009, published 2011).

This test concerns fetal cells. Description: Fetal cell number in blood drawn into sodium heparin or EDTA tubes, digital PCR. In kind it is cell-based. Conditions: composition containing heparin compared to composition containing EDTA; processed within 2 hrs after blood draw; FIG. 1. The procedure: The number of fetal cells in solutions containing EDTA or heparin were compared (FIG. 1). Pre-procedural blood samples (10 ml per condition) were drawn into either sodium heparin tubes or EDTA tubes. Samples were processed within 2 hrs after blood draw. Briefly, whole blood samples were centrifuged to separate blood cells and plasma. Fetal gender was determined by digital PCR using plasma. Blood cell pellets were washed 5 times in PBS to remove cell-free DNA. DNA was then extracted from washed blood cells with a Qiagen column. The fetal cell number in samples with a male fetus was enumerated by digital PCR.

With heparin, the fetal cell stability entry is given as “higher stability”.
